Read-outs that look alike come from different tables or passages of the source.
What was measured:
[1] = tested on: DOHH2; assay: in vitro cell experiments, sensitivity of DOHH2 cell line; type: cell-based; settings: DOHH2 human follicular lymphoma cell line
[2] = tested on: human OCI-LY8 (DLBCL) mouse xenograft tumor; type: in vivo
Procedure: (§1) All animal experiments were strictly in accordance with the laboratory animal use and management practices of GenePharma Co., Ltd. and Ascentage Pharma Group Co., Ltd. The calculation of relevant parameters referred to the Chinese CFDA “Guidelines for Non-Clinical Research Techniques of Cytotoxic Antitumor Drugs”.
(§2) The animal body weight and tumor size were measured twice weekly during the experiment. The conditions and death of the animals were observed every day. Routine monitoring included the effects of tumor growth and treatment on normal animal behaviors, including activity, feeding and drinking situations, weight gain or loss, eyes, coat and other abnormalities in the experimental animals. The deaths and clinical symptoms observed during the experiment were recorded in the raw data. The entire operations of administration, measurement of mouse body weight and tumor volume were performed in a clean bench. Plasma and tumor tissues were collected, weighed and photographed after the end of the last administration according to the experimental protocol. Plasma and tumor samples were snap frozen and stored at −80° C.
(§3) Tumor volume (TV) was calculated as: TV=a×b2/2, in which a and b represented the length and width of the tumor as measured, respectively. The relative tumor volume (RTV) was calculated as: RTV=Vt/V1, in which V1 was the tumor volume at the time of grouping and administration, and Vt was the tumor volume measured on a day after administration. […] Change of body weight %=(measured body weight−body weight at the time of grouping)/body weight at the time of grouping×100%.
(§4) If the synergy factor was >1, there was a synergistic effect; if the synergistic factor=1, there was an additive effect; if the synergistic factor <1, there was an antagonistic effect.
Bendamustine was an FDA approved drug for the treatment of B-cell non-Hodgkin's lymphoma.

[3] = tested on: human Toledo (DLBCL) mouse xenograft tumor; type: in vivo; settings: Compound 6 100 mg/kg p.o. qd×14 days; rituximab 4 mg/kg i.v. qw; day 15
Procedure: as §1, §2, §3, §4

[4] = tested on: OCI-LY8 cells; assay: in vitro experiment, sensitivity of OCI-LY8 cells; type: cell-based; settings: OCI-LY8 human DLBCL cell line
Procedure: (1) The experimental method was as described in Example 1. In the in vitro experiment, OCI-LY8 cells were also human DLBCL cell lines sensitive to Compound 6 treatment, with an IC50 value of 0.006±0.002 μM. Therefore, this experiment used OCI-LY8 cells to establish a mouse xenograft tumor model (A. Esteve-Arenys et al. The BET bromodomain inhibitor CP1203 overcomes resistance to ABT-199 (venetoclax) by downregulation of BFL-1/A1 in in vitro and in vivo models of MYC+/BCL2+ double hit lymphoma. Oncogene 37(14). January 2018), and thereby evaluated the anti-tumor effect of Compound 6 in combination with rituximab.

[5] = tested on: Toledo; assay: in vitro cell experiments, sensitivity of Toledo cell line; type: cell-based; settings: Toledo human DLBCL cell line
[6] = tested on: human DOHH2 (FL) mouse xenograft tumor; type: in vivo; settings: day 15; for Tumor remission on the 15th day after administration: CR: animals with CR/group; for Tumor remission on the 15th day after administration: PR: animals with PR/group
Procedure: as §1, §2, §3, §4
CHOP included: cyclophosphamide, 20 mg/kg, intraperitoneal injection, administered on the 1st and 9th days; doxorubicin, 2 mg/kg, intravenous injection, administered on the 1st day; vincristine, 0.1 mg/kg, intravenous injection, administered on the 1st and 9th days; prednisone, 0.5 mg/kg, orally administered on the 1st day. […] The injected dose was 10 mL/kg (0.2 mL/mouse). The agent was dissolved in saline. […] The agent was dissolved in saline. Vincristine (batch number 0708v1) was purchased from Shenzhen Main Luck Pharmaceuticals Inc. Vincristine was administered by intravenous injection at a dose of 10 mL/kg (0.2 mL/mouse). The agent was dissolved in saline. Prednisone (batch number M0412A) was purchased from Dalian Meilun Biotechnology Co., Ltd. Prednisone was administered by oral gavage at a dose of 10 mL/kg (0.2 mL/mouse). […] The dosage formulations were prepared freshly prior to use. The preparation and use of the dosage formulations were always carried out under sterile conditions.

[7] = Cpd. 6 25 mg/kg p.o. qd×15d, day 11
[8] = Cpd. 6 50 mg/kg p.o. qd×15d, alone or + rituximab 4 mg/kg i.v. qw×2 wks, day 11
[9] = Cpd. 6 100 mg/kg p.o. qd×15d, alone or + rituximab 4 mg/kg i.v. qw×2 wks, day 11
[10] = Table 3: Cpd. 6 100 mg/kg p.o. qd, bendamustine 25 mg/kg i.v., rituximab 10 mg/kg i.v., day 11
[11] = Table 4: Cpd. 6 100 mg/kg p.o. qd, bendamustine 25 mg/kg, rituximab 10 mg/kg
[12] = Table 4: Cpd. 6 100 mg/kg, bendamustine 25 mg/kg, rituximab 10 mg/kg
[13] = Table 5: Cpd. 6 100 mg/kg, CHOP regimen
[14] = rituximab alone 4 mg/kg i.v. qw×2 wks, day 11

## O=C(NS(=O)(=O)c1ccc(NC[C@H]2COCCO2)c([N+](=O)[O-])c1)c1ccc(N2CCN(CC3=C(c4ccc(Cl)cc4)CC4(CCC4)CC3)CC2)cc1Oc1cnc2[nH]ccc2c1 [Compound 6, (S)-N-((4-(((1,4-dioxan-2-yl)methyl)amino)-3-nitrophenyl)sulfonyl)-2-((1H-pyrrolo[2,3-b]pyridin-5-yl)oxy)-4-(4-((6-(4-chlorophenyl)spiro[3.5]non-6-en-7-yl)methyl)piperazin-1-yl)benzamide]
[1]
  sensitivity of cell line to Compound 6 treatment: relatively sensitive
[2]; [7]
  RTV on the 11th day after administration (mean ± standard error): 6.87 ± 2.1 **^
  T/C (%) on the 11th day after administration: 37%
  Tumor status on the 11th day after administration (remission rate %): 0%
[2]; Cpd. 6 25 mg/kg p.o. qd×15d, day 11, animals with CR/group
  Tumor status on the 11th day after administration: CR: 0/5 CR,
[2]; Cpd. 6 25 mg/kg p.o. qd×15d, day 11, animals with PR/group
  Tumor status on the 11th day after administration: PR: 0/5
[2]; [8]
  RTV on the 11th day after administration (mean ± standard error): 6.19 ± 1.86
  T/C (%) on the 11th day after administration: 33%
[2]; Cpd. 6 50 mg/kg, alone or + rituximab 4 mg/kg, day 11
  Tumor status on the 11th day after administration (remission rate %): 0%
[2]; Cpd. 6 50 mg/kg, alone or + rituximab 4 mg/kg, day 11, animals with CR/group
  Tumor status on the 11th day after administration: CR: 0/5 CR,
[2]; Cpd. 6 50 mg/kg, alone or + rituximab 4 mg/kg, day 11, animals with PR/group
  Tumor status on the 11th day after administration: PR: 0/5
[2]; [9]
  RTV on the 11th day after administration (mean ± standard error): 5.54 ± 1.78
  T/C (%) on the 11th day after administration: 30%
[2]; Cpd. 6 100 mg/kg, alone or + rituximab 4 mg/kg, day 11
  Tumor status on the 11th day after administration (remission rate %): 0%
[2]; Cpd. 6 100 mg/kg, alone or + rituximab 4 mg/kg, day 11, animals with CR/group
  Tumor status on the 11th day after administration: CR: 0/5 CR,
[2]; Cpd. 6 100 mg/kg, alone or + rituximab 4 mg/kg, day 11, animals with PR/group
  Tumor status on the 11th day after administration: PR: 0/5
[2]; [10]
  RTV on the 11th day after administration (mean ± standard error): 5.54 ± 1.78
  T/C (%) on the 11th day after administration: 30%
[2]; Table 3: Cpd. 6 100 mg/kg, bendamustine 25 mg/kg, rituximab 10 mg/kg, day 11
  On the 11th day after administration (remission rate %): 0%
[2]; Table 3: Cpd. 6 100 mg/kg, bendamustine 25 mg/kg, rituximab 10 mg/kg, day 11, animals with CR/group
  On the 11th day after administration: CR: 0/5 CR,
[2]; Table 3: Cpd. 6 100 mg/kg, bendamustine 25 mg/kg, rituximab 10 mg/kg, day 11, animals with PR/group
  On the 11th day after administration: PR: 0/5
[3]
  RTV on the 15th day after administration (mean ± standard error): 4.93 ± 0.41 ^
  T/C (%) on the 15th day after administration: 38%
[4]
  IC50: 6 ± 2 nM
[5]
  IC50: 49 ± 5 nM
[6]; [11]
  RTV on the 15th day after administration (mean ± standard error): 3.06 ± 0.79
  T/C (%) on the 15th day after administration: 28%
[6]; [12]
  Tumor remission rate on the 15th day after administration %: 0%
  Tumor remission on the 15th day after administration: CR: 0/5
  Tumor remission on the 15th day after administration: PR: 0/5
[6]; Table 5: Cpd. 6 100 mg/kg, CHOP (cyclophosphamide 20 mg/kg i.p. d1, d9; doxorubicin 2 mg/kg i.v. d1; vincristine 0.1 mg/kg i.v. d1, d9; prednisone 0.5 mg/kg p.o. d1)
  RTV on the 15th day after administration (mean ± standard error): 3.06 ± 0.79
[6]; [13]
  T/C (%) on the 15th day after administration: 28%
  Tumor remission rate on the 15th day after administration %: 0%
  Tumor remission on the 15th day after administration: CR: 0/5
  Tumor remission on the 15th day after administration: PR: 0/5

## Rituximab [reference compound]
[2]; [14]
  RTV on the 11th day after administration (mean ± standard error): 1.38 ± 0.69
  T/C (%) on the 11th day after administration: 7%
[2]; rituximab alone 4 mg/kg, day 11
  Tumor status on the 11th day after administration (remission rate %): 80%
[2]; rituximab alone 4 mg/kg, day 11, animals with CR/group
  Tumor status on the 11th day after administration: CR: 0/5 CR,
[2]; rituximab alone 4 mg/kg, day 11, animals with PR/group
  Tumor status on the 11th day after administration: PR: 4/5
[2]; rituximab alone 4 mg/kg, day 11, animals with PR/group, listed as rituximab
  Tumor status on the 11th day after administration: PR: Four out of five
[2]; rituximab alone 4 mg/kg, day 22, after drug discontinuance
  RTV on the 22nd day after administration (mean ± standard error): 20.04 ± 5.38 ^
[3]
  RTV on the 15th day after administration (mean ± standard error): 8.99 ± 2.15 ^
  T/C (%) on the 15th day after administration: 69%
